The record followed here is patent US20230338392A1, “SUBCUTANEOUS ADMINISTRATION OF AN ASBT INHIBITOR” (Albireo AB, priority 2022, published 2023).

Series [1] in a line: Plasma concentration following subcutaneous or intravenous administration. The format is in vivo, male C57BL/6 mice. On the procedure: Elobixibat was administered to male C57BL/6 mice (n=5) as a subcutaneous injection at a dose of 3 or 10 mg/kg or as an intravenous injection at a dose of 1 mg/kg (single injections), or as repeated subcutaneous injections at a dose of 1 mg/kg at day 1 and day 5. Elobixibat was formulated in 70% PEG400; 10% ethanol; and 20% water and given at a dosing volume of 5 mL/kg subcutaneously or 1 mL/kg intravenously. Blood samples were collected after 0.25, 0.5, 1, 2, 4, 6, 8 and 24 hours following subcutaneous administration and after 0.083, 0.25, 0.5, 1, 2, 4, 6, 8 and 24 hours following intravenous administration. Blood samples were taken from saphenous vein. 0.2% EDTA was used as the anticoagulant. The samples were analyzed by a discovery grade bioanalytical method developed for the estimation of elobixibat in plasma, using an LC-MS/MS system.
The results for single subcutaneous (3 or 10 mg/kg) and intravenous (1 mg/kg) administrations are shown in FIG. 1, and the results for repeated subcutaneous administrations (1 mg/kg at day 1 and day 5) are shown in FIG. 2.

In series [2] the test system is DDC mice. Briefly: DDC in vivo model of cholestatic disease: serum chemistries. Also noted: species or system male C57BL/6J WT mice. The text has this:
(§1) Chronic feeding of 3,5-diethoxycarbonyl-1,4-dihydrocollidine (DDC) was used as an in vivo model for cholestatic liver injury. Chronic feeding of DDC produces an intraductal porphyrin plug which leads to ductular obstruction contributing to damage of biliary epithelia. The time course of the DDC model usually ranges from 1 to 6 weeks, depending on the severity of the cholangiopathy that the study requires. Chronic feeding of DDC in mice reproduces the main histopathological hallmarks of human cholestatic disease such as (1) remodeling of biliary compartments giving rise to ductular reaction, (2) periductular fibrosis, and (3) inflammatory infiltrate (Mariotti et al., Biochim Biophys Acta Mol Basis Dis 2018, vol. 1864, p. 1254-1261; Pose et al., Methods Mol. Biol. 2019, vol. 1981, p. 249-257).
Male C57BL/6J WT mice of 8 weeks old were used. After completion of quarantine and acclimatization period, animals were randomized based on body weight into experimental groups (n=7-9/group). Animals were fed chow (control diet) or chow plus 0.1% DDC (DDC diet) for 14 days, and treated once daily with vehicle (s.c.) or the ASBT inhibitor elobixibat at a dose of 0.3, 1.0 or 3.0 mg/kg (s.c.), as shown in Table 1. Animals were weighed at days 7, 11 and 14. Blood samples were collected at day 7. On day 11, animals were moved to individual cages with wire bottom for fecal collection. Blood, urine, tissue samples and 3-day fecal samples were collected at day 14.
Endpoints measured at the end of the study include fecal bile acid excretion, urine and serum bile acid concentration and composition, and serum chemistries reflecting liver status.

Series [3] concerns KIM-1 (kidney injury molecule-1). Briefly: DDC model: mRNA expression of renal proximal tubule cell injury marker KIM-1. The format is in vivo, male C57BL/6J WT mice. The conditions noted are these: DDC cholestatic mice, s.c. elobixibat versus vehicle, 14 days (FIG. 6).
Description: as §1
(§2) Male C57BL/6J WT mice of 8 weeks old were used. After completion of quarantine and acclimatization period, animals were randomized based on body weight into experimental groups (n=7-9/group). Animals were fed chow (control diet) or chow plus 0.1% DDC (DDC diet) for 14 days, and treated once daily with vehicle (s.c.) or the ASBT inhibitor elobixibat at a dose of 0.3, 1.0 or 3.0 mg/kg (s.c.), as shown in Table 1. Animals were weighed at days 7, 11 and 14. Blood samples were collected at day 7. On day 11, animals were moved to individual cages with wire bottom for fecal collection. […]

Series [4] has as its system LCN2 (lipocalin-2). Briefly: DDC model: mRNA expression of renal proximal tubule cell injury marker LCN2. It is filed as in vivo, male C57BL/6J WT mice. The conditions noted are these: DDC cholestatic mice, s.c. elobixibat versus vehicle, 14 days (FIG. 7).
Description: as §1, §2

Where [5] appears, read: subcutaneous administration (FIG. 1).

Take `CCCCC1(CCCC)CN(c2ccccc2)c2cc(SC)c(OCC(=O)N[C@@H](C(=O)NCC(=O)O)c3ccccc3)cc2S(=O)(=O)C1` [elobixibat, 1,1-dioxo-3,3-dibutyl-5-phenyl-7-methylthio-8-(N-{(R)-1′-phenyl-1′-[N′-(carboxymethyl)-carbamoyl]methyl}carbamoylmethoxy)-2,3,4,5-tetrahydro-1,5-benzothiazepine]: the clearance entry in series [1] (intravenous administration (FIG. 1)) was “quick clearance”. Also, in series [1] (setting [5]), the bioavailability result is “high bioavailability” and the “duration of constant exposure” value is given as “more than 24 hours”. In addition, in series [2] (s.c. once daily 0.3, 1.0 or 3.0 mg/kg for 14 days (FIG. 5)), the “serum alkaline phosphatase (ALP) levels” value is recorded as “dose-dependent trend towards reduced”. The serum bile acids entry in series [2] (s.c. once daily 0.3, 1.0 or 3.0 mg/kg for 14 days, reduced at lowest dose, no additional reduction at higher doses (FIG. 3)) is “statistically significant reduction”. The serum total bilirubin result in series [2] (s.c. once daily 0.3, 1.0 or 3.0 mg/kg for 14 days, reduced at lowest dose, no additional reduction at higher doses (FIG. 4)) is listed as “statistically significant reduction”. For the same compound, the “mRNA expression for KIM-1” value in series [3] was “reduced”. Also, the “mRNA expression for LCN2” value in series [4] is listed as “reduced”.
